Like-named read-outs stand apart in the source and are kept apart here.
Key:
[1] = tested on: Key Grass and Sedge Weeds as well as Grass Crops; experiment: Post-emergent Test II herbicidal activity (Table 16); type: in vivo; settings: post-emergence, 336 h, 14 d; for pest or weed control at 35 g/ha: 35 g ai/ha; for pest or weed control at 70 g/ha: 70 g ai/ha; for pest or weed control at 140 g/ha: 140 g ai/ha
Method in brief: (§1)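 Visual injury rating (0 = none, 100% = complete kill) made 14 d after treatment, relative to untreated plants. Compounds in an acetone/DMSO/aqueous crop-oil/surfactant spray, at top rate and serial 1/2×-1/16× rates, were applied at 187 L/ha overhead to first-second true leaf plants raised 7-21 d in greenhouse.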

[2] = tested on: Key Broadleaf Weed and Crop Species; experiment: Post-emergent Test II herbicidal activity (Table 15); type: in vivo; settings: post-emergence, 336 h, 14 d; for pest or weed control at 35 g/ha: 35 g ai/ha; for pest or weed control at 70 g/ha: 70 g ai/ha; for pest or weed control at 140 g/ha: 140 g ai/ha
Method in brief: as §1

[3] = Cyperus esculentus, yellow nutsedge (Cyperus esculentus), read-out: Visual Growth Reduction (%) 14 Days After Application, CYPES
[4] = Echinochloa crus-galli, barnyardgrass (Echinochloa crus-galli), read-out: Visual Growth Reduction (%) 14 Days After Application, ECHCG
[5] = Oryza sativa, rice (Oryza sativa), read-out: Visual Growth Reduction (%) 14 Days After Application, ORYSA
[6] = Setaria faberi, giant foxtail (Setaria faberi), read-out: Visual Growth Reduction (%) 14 Days After Application, SETFA
[7] = Triticum aestivum, wheat, spring (Triticum aestivum), read-out: Visual Growth Reduction (%) 14 Days After Application, TRZAS
[8] = Zea mays, maize, corn (Zea mays), read-out: Visual Growth Reduction (%) 14 Days After Application, ZEAMX
[9] = Abutilon theophrasti, velvetleaf (Abutilon theophrasti), read-out: Visual Growth Reduction (%) 14 Days After Application, ABUTH
[10] = Amaranthus retroflexus, redroot pigweed (Amaranthus retroflexus), read-out: Visual Growth Reduction (%) 14 Days After Application, AMARE
[11] = Brassica napus, oilseed rape, canola (Brassica napus), read-out: Visual Growth Reduction (%) 14 Days After Application, BRSNN
[12] = Chenopodium album, lambsquarters (Chenopodium album), read-out: Visual Growth Reduction (%) 14 Days After Application, CHEAL
[13] = Euphorbia heterophylla, wild poinsettia (Euphorbia heterophylla), read-out: Visual Growth Reduction (%) 14 Days After Application, EPHHL
[14] = Helianthus annuus, sunflower (Helianthus annuus), read-out: Visual Growth Reduction (%) 14 Days After Application, HELAN

## Nc1c(F)c(-c2ccc(Cl)c3occc23)nc(C(=O)O)c1Cl [Compound 2.18]
[1]; [3]
  pest or weed control at 35 g/ha: 0 to 29%
  pest or weed control at 70 g/ha: 0 to 29%
  pest or weed control at 140 g/ha: 0 to 29%
[1]; [4]
  pest or weed control at 35 g/ha: 0 to 29%
  pest or weed control at 70 g/ha: 0 to 29%
  pest or weed control at 140 g/ha: 0 to 29%
[1]; [5]
  pest or weed control at 35 g/ha: 0 to 29%
  pest or weed control at 70 g/ha: 0 to 29%
  pest or weed control at 140 g/ha: 0 to 29%
[1]; [6]
  pest or weed control at 35 g/ha: 0 to 29%
  pest or weed control at 70 g/ha: 0 to 29%
  pest or weed control at 140 g/ha: 0 to 29%
[1]; [7]
  pest or weed control at 35 g/ha: 0 to 29%
  pest or weed control at 70 g/ha: 0 to 29%
  pest or weed control at 140 g/ha: 0 to 29%
[1]; [8]
  pest or weed control at 35 g/ha: 0 to 29%
  pest or weed control at 70 g/ha: 0 to 29%
  pest or weed control at 140 g/ha: 0 to 29%
[2]; [9]
  pest or weed control at 35 g/ha: 0 to 29%
  pest or weed control at 70 g/ha: 0 to 29%
  pest or weed control at 140 g/ha: 0 to 29%
[2]; [10]
  pest or weed control at 35 g/ha: 95 to 100%
  pest or weed control at 70 g/ha: 95 to 100%
  pest or weed control at 140 g/ha: 95 to 100%
[2]; [11]
  pest or weed control at 35 g/ha: 45 to 59%
  pest or weed control at 70 g/ha: 60 to 74%
  pest or weed control at 140 g/ha: 60 to 74%
[2]; [12]
  pest or weed control at 35 g/ha: 85 to 94%
  pest or weed control at 70 g/ha: 85 to 94%
  pest or weed control at 140 g/ha: 85 to 94%
[2]; [13]
  pest or weed control at 35 g/ha: 0 to 29%
  pest or weed control at 70 g/ha: 0 to 29%
  pest or weed control at 140 g/ha: 0 to 29%
[2]; [14]
  pest or weed control at 35 g/ha: 75 to 84%
  pest or weed control at 70 g/ha: 75 to 84%
  pest or weed control at 140 g/ha: 85 to 94%

## COC(=O)c1nc(-c2ccc(Cl)c3occc23)nc(N)c1OC [Compound 2.21]
[1]; [3]
  pest or weed control at 35 g/ha: 0 to 29%
  pest or weed control at 70 g/ha: 0 to 29%
  pest or weed control at 140 g/ha: 0 to 29%
[1]; [5]
  pest or weed control at 35 g/ha: 0 to 29%
  pest or weed control at 70 g/ha: 0 to 29%
  pest or weed control at 140 g/ha: 0 to 29%
[1]; [6]
  pest or weed control at 35 g/ha: 0 to 29%
  pest or weed control at 70 g/ha: 0 to 29%
  pest or weed control at 140 g/ha: 0 to 29%
[1]; [7]
  pest or weed control at 35 g/ha: 0 to 29%
  pest or weed control at 70 g/ha: 0 to 29%
  pest or weed control at 140 g/ha: 0 to 29%
[1]; [8]
  pest or weed control at 35 g/ha: 0 to 29%
  pest or weed control at 70 g/ha: 0 to 29%
  pest or weed control at 140 g/ha: 0 to 29%
[2]; [9]
  pest or weed control at 35 g/ha: 30 to 44%
  pest or weed control at 70 g/ha: 60 to 74%
  pest or weed control at 140 g/ha: 60 to 74%
[2]; [10]
  pest or weed control at 35 g/ha: 95 to 100%
  pest or weed control at 70 g/ha: 95 to 100%
  pest or weed control at 140 g/ha: 95 to 100%
[2]; [11]
  pest or weed control at 35 g/ha: 30 to 44%
  pest or weed control at 70 g/ha: 30 to 44%
  pest or weed control at 140 g/ha: 45 to 59%
[2]; [12]
  pest or weed control at 35 g/ha: 85 to 94%
  pest or weed control at 70 g/ha: 85 to 94%
  pest or weed control at 140 g/ha: 95 to 100%
[2]; [13]
  pest or weed control at 35 g/ha: 0 to 29%
  pest or weed control at 70 g/ha: 0 to 29%
  pest or weed control at 140 g/ha: 0 to 29%
[2]; [14]
  pest or weed control at 35 g/ha: 60 to 74%
  pest or weed control at 70 g/ha: 75 to 84%
  pest or weed control at 140 g/ha: 75 to 84%
